Assay [1] deals with Epidermal growth factor receptor (Homo sapiens), P00533 [L858R]. The settings on record: at 10 µM.
Assay [2] deals with Casein kinase I isoform gamma-2 (Homo sapiens) (UniProt P78368). The assay is described as follows: Selectivity interaction (KinomeScan (DiscoverX)) EUB0000666a CSNK1G2. To be noted: at 10 µM.
Assay [3] concerns the target T1, Serine/threonine-protein kinase Nek1 (Homo sapiens) (UniProt Q96PY6).
T1 sequence (whole entry): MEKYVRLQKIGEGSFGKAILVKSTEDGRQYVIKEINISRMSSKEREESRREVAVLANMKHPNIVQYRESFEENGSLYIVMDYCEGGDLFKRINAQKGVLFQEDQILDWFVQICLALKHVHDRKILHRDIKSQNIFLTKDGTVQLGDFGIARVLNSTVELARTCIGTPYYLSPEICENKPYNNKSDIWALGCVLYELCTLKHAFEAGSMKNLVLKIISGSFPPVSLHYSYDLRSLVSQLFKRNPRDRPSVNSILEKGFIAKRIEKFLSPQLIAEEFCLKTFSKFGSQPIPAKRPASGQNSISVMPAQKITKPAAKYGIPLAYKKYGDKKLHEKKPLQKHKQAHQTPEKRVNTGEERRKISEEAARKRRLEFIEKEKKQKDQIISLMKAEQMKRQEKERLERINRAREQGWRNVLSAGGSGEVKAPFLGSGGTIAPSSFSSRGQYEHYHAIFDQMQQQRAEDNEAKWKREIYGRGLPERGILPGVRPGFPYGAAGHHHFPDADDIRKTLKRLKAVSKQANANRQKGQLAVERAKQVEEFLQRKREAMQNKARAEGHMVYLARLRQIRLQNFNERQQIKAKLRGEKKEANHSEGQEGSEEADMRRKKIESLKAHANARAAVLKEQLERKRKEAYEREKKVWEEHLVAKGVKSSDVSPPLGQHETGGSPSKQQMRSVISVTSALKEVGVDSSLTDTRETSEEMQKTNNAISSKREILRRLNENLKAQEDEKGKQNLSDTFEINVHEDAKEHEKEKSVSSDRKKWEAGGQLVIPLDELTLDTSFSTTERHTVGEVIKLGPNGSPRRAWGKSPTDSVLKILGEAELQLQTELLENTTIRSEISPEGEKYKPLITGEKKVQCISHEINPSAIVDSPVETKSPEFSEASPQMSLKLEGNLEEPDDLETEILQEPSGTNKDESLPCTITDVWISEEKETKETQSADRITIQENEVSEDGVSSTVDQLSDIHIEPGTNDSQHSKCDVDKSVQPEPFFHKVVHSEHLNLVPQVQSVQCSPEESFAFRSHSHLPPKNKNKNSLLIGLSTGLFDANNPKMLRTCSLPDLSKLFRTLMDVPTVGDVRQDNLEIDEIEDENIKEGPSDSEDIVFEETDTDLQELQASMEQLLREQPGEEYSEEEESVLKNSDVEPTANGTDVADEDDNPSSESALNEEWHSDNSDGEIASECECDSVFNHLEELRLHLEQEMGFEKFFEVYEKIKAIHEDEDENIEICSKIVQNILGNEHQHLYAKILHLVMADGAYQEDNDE
Nature of the assay: Selectivity interaction (SelectScreen profiling (Invitrogen)) EUB0000607a NEK1. To be noted: at 2 µM.

For assay [4], the target named is Insulin-like growth factor 1 receptor (Homo sapiens, UniProt P08069). To be noted: at 10 µM.
Chain of Insulin-like growth factor 1 receptor (P08069 31-736 limits assumed): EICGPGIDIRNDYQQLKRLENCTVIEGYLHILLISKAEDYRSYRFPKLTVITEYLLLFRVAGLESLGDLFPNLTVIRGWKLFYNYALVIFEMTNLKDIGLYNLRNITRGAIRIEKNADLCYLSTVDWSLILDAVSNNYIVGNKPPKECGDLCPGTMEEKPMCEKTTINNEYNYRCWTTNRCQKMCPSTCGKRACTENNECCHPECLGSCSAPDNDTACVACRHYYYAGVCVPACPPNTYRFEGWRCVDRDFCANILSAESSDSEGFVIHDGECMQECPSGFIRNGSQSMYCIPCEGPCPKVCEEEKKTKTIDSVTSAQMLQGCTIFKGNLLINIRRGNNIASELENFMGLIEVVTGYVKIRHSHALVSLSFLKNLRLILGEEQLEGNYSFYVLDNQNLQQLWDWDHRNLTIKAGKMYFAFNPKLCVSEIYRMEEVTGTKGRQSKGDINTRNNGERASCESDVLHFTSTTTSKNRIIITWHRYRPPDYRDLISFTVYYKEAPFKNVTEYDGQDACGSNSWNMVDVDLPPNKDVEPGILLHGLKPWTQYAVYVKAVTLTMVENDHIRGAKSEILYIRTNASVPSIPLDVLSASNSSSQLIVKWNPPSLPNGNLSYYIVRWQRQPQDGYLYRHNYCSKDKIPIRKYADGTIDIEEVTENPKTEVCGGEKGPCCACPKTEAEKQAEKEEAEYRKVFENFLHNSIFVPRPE
Chain of Insulin-like growth factor 1 receptor (P08069 741-1367 limits assumed): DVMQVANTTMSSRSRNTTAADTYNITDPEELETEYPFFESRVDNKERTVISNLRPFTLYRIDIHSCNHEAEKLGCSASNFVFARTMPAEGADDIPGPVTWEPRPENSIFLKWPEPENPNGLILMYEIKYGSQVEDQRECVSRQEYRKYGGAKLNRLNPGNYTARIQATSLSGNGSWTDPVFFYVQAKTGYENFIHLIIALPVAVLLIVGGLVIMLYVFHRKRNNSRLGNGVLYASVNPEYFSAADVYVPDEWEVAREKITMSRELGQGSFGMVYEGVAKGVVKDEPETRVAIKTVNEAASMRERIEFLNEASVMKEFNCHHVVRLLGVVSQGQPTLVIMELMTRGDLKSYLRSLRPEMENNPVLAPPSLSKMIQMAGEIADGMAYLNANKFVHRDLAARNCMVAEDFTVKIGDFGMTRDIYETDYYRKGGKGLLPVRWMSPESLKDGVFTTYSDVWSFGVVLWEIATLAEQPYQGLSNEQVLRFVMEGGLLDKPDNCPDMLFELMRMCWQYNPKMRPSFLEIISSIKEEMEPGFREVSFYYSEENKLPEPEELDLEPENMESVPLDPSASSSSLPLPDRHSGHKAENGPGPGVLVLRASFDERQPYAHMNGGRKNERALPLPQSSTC
Assay [5] has as its target T2, Myosin light chain kinase (Homo sapiens) (UniProt Q32MK0).
T2 sequence (whole entry): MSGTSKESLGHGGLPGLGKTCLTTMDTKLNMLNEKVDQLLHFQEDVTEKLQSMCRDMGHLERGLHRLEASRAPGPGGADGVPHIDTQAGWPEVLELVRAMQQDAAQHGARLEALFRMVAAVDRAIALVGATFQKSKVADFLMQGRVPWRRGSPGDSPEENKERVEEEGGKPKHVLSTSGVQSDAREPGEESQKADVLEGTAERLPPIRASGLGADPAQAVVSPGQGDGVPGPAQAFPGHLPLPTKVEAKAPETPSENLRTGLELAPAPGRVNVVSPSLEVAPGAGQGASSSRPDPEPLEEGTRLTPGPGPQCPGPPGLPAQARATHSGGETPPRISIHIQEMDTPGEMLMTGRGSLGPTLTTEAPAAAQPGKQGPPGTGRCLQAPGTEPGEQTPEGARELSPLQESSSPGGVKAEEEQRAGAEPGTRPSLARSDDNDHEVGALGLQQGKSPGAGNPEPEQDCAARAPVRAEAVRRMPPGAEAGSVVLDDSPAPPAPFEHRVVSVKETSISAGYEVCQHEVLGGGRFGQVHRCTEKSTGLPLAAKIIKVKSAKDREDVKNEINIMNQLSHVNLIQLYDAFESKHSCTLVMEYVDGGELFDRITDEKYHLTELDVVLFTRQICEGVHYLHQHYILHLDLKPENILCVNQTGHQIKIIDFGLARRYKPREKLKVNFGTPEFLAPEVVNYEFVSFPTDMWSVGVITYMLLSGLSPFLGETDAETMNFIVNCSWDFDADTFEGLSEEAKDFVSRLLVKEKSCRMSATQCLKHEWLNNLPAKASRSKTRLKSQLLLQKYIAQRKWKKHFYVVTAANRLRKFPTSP
The assay is described as follows: Selectivity interaction (ProQinase) EUB0000171b MYLK3.

In a further assay the target is Aurora kinase B (Homo sapiens, UniProt Q96GD4). Nature of the assay: Selectivity interaction (Kinase panel (Enzyme activity assay)) EUB0000612a AURKB.
Chain of Aurora kinase B (Q96GD4 whole entry): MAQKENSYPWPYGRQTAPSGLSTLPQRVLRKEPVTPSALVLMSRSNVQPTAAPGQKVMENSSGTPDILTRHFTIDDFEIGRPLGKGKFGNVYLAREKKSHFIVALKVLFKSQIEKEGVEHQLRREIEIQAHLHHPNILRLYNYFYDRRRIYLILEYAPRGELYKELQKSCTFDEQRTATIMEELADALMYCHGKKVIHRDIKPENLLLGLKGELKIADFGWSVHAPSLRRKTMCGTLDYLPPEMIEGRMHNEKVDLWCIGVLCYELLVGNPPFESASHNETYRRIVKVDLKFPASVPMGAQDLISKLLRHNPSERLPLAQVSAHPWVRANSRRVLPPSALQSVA
In assay [6] the target is T3, Dual specificity tyrosine-phosphorylation-regulated kinase 2 (Homo sapiens) (UniProt Q92630).
T3 sequence (whole entry): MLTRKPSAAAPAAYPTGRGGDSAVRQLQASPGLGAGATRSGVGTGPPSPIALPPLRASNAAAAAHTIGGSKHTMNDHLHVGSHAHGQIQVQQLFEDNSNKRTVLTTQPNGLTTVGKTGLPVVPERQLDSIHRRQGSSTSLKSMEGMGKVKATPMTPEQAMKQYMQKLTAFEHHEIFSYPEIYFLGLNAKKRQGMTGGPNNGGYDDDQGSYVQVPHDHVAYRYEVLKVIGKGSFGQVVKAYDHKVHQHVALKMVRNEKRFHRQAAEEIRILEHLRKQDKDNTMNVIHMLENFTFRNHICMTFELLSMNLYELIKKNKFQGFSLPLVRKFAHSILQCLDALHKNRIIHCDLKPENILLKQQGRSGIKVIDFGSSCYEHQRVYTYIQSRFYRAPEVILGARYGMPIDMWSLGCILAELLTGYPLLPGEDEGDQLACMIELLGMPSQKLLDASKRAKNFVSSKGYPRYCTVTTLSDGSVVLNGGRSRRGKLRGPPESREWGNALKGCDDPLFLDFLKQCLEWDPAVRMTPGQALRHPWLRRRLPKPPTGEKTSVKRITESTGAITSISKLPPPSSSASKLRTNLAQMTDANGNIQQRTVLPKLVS
The assay is described as follows: Selectivity interaction (KinomeScan (DiscoverX)) EUB0000618a DYRK2. The settings on record: at 10 µM.

The target in assay [7] is Serine/threonine-protein kinase Nek4 (Homo sapiens) (UniProt P51957). The assay is described as follows: Selectivity interaction (Kinase panel (KiNativ target engagement assay in Jurkat cells)) EUB0001635a NEK4. It is filed as cell-based. The settings on record: at 1 µM.
Chain of Serine/threonine-protein kinase Nek4 (Homo sapiens) (P51957 whole entry, looked up): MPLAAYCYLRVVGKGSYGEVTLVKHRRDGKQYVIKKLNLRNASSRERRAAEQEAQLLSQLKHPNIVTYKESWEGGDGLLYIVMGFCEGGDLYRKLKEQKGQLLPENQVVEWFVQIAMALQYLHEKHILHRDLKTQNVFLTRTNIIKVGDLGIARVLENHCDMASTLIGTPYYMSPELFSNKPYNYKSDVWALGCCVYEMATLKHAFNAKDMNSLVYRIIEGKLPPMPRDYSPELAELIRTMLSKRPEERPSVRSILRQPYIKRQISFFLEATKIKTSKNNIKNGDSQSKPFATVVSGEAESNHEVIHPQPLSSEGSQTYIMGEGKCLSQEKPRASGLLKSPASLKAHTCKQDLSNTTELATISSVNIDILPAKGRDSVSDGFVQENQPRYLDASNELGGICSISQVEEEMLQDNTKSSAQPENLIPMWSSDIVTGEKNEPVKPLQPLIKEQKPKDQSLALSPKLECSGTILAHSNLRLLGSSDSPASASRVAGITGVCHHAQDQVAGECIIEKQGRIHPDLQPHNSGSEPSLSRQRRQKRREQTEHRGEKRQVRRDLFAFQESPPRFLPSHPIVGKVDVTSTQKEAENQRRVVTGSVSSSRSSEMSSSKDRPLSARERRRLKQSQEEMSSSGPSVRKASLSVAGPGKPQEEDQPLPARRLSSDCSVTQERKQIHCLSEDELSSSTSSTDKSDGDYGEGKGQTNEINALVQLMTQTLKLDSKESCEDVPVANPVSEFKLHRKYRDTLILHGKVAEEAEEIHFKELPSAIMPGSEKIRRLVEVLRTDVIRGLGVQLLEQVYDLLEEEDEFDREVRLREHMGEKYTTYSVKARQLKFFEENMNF

Usually IC50 stands for the midpoint of a concentration-inhibition curve. Read a low IC50 as greater potency.

Chain of Casein kinase I isoform gamma-2 (Homo sapiens) (P78368 whole entry, looked up, canonical isoform): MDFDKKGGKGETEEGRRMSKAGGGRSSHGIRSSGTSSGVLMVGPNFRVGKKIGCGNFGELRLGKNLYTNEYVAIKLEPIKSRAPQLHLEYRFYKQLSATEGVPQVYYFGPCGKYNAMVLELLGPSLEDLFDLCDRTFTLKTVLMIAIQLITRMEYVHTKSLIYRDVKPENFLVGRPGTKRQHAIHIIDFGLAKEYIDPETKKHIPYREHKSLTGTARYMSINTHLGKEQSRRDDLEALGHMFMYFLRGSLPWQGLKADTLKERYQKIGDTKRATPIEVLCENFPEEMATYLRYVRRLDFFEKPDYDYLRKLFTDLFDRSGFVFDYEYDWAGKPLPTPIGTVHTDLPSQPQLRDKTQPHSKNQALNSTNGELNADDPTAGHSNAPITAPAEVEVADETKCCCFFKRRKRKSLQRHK
Chain of Epidermal growth factor receptor (Homo sapiens), P00533 [L858R] (P00533 whole entry L858R, canonical isoform): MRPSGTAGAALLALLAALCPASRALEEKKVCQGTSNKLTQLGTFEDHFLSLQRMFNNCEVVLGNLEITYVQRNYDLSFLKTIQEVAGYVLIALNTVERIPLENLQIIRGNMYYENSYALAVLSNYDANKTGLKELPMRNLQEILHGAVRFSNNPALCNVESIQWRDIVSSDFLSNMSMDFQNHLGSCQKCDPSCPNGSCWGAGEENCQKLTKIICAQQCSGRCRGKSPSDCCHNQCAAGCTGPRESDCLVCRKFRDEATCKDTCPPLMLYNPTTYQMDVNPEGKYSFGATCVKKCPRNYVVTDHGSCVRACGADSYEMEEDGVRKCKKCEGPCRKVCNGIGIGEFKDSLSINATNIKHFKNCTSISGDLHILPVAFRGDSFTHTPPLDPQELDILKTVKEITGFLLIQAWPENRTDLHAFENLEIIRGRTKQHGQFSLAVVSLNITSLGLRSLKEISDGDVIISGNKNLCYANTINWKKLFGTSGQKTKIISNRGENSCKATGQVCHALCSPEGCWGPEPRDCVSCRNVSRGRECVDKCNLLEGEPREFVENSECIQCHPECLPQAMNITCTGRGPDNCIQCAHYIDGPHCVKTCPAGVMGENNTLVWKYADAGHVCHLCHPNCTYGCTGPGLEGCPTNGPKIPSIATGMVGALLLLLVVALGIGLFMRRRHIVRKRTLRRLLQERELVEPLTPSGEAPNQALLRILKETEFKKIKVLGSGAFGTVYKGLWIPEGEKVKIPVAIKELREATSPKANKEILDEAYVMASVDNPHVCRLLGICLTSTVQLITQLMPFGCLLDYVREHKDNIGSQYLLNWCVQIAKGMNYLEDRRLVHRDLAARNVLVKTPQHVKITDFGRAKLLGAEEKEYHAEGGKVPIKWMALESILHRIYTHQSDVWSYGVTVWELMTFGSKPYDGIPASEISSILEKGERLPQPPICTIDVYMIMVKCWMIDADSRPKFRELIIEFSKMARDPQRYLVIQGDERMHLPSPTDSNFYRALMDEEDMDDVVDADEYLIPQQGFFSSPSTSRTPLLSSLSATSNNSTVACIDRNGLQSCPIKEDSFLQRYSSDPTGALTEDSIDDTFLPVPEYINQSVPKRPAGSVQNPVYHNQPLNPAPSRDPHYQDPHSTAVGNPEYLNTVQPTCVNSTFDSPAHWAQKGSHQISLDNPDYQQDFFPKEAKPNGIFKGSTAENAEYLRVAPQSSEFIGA

Regarding `COCC(=O)NC/C=C/c1ccc2ncnc(Nc3ccc(Oc4ccc(C)nc4)c(C)c3)c2c1` [CP-724714], in assay [1], the % of control is 0.6%.

The molecule `O=C(NOC[C@H](O)CO)c1ccc(F)c(F)c1Nc1ccc(I)cc1F` had a % of control in assay [2] of 95%. In assay [3], `CNC(=O)Nc1ccc(-c2nc(N3CC4CCC(C3)O4)c3cnn(C4CCC5(CC4)OCCO5)c3n2)cc1` gave a % of inhibition of 7%. Take `Cc1cc([C@@H](C)Nc2ccccc2C(=O)O)c2nc(N3CCOCC3)cc(=O)n2c1` [AZD-6482]: the % of control in assay [4] amounted to 100%. Turning to `C=CC(=O)Nc1cccc(C(=O)Nc2ccc(Nc3cc(-c4[nH]c(SC)nc4C)ccn3)cc2)c1`, the % of control stood at 89% in assay [5] (at 1 µM) and 68% in assay [5] (at 5 µM).

Take `CCc1cccc(CC)c1NC(=O)c1nn(C)c2c1CCc1cnc(Nc3ccc(C(=O)NC4CCN(C)CC4)cc3OC(F)(F)F)nc1-2`: the concentration for half-maximal inhibition (IC50) on Aurora kinase B was over 10 µM. `O[C@H]1CC[C@H](Nc2ncc3nc(Nc4c(F)cc(F)cc4F)n([C@H]4CCOC4)c3n2)CC1` yielded a % of control in assay [6] of 100%.

In assay [7], `C=CC(=O)Nc1ccc(C(=O)Nc2[nH]nc3c2CN(C(=O)N[C@H](CN(C)C)c2ccccc2)C3(C)C)cc1` yielded a % of engagement of 0.8%.

For the origin of these results see ChEMBL document CHEMBL5465560, “Selectivity Literature for EUbOPEN Chemogenomic Library” (2024).
